Measured values as given in patent publication US7887835B2, “Compound comprising a fluorine-substituted alkyl group and a liposome contrast medium comprising the compound” (priority 2006, dated 2011).
Like-named read-outs stand apart in the source and are kept apart here.

What was measured:
[1] = Preparation of liposome: maximum amount of compound forming liposome, particle size; assay type: physicochemical; conditions: with dipalmitoyl-PC 50 nmol + dipalmitoyl-PS 50 nmol, 0.9% physiological saline, ultrasonicated
Protocol: According to the method described in J. Med. Chem., 25 (12), 1500 (1982), the disclosure of which is expressly incorporated by reference herein in its entirety, dipalmitoyl-PC (Funakoshi, No. 1201-41-0225), dipalmitoyl-PS (Funakoshi, No. 1201-42-0237), and the compound of the present invention, in the ratio described below, were dissolved in chloroform contained in an eggplant-shaped flask to obtain a uniform solution, and then the solvent was evaporated under reduced pressure to obtain a thin membrane formed on the bottom of the flask. The thin membrane was dried in vacuo, then added with an appropriate volume of 0.9% physiological saline (Hikari Pharmaceutical, No. 512) and ultrasonicated (probe type oscillator, Branson, No. 3542, 0.1 mW) for 5 minute with ice cooling to obtain a uniform liposome dispersion. Size of the particles contained in the resulting dispersion was measured by using WBC analyzer (Nihon Kohden, A-1042). The particle sizes were 85 to 110 nm.
Liposome formulation having the ratio of PC:PS:Compound d1-6=50:50:40 (nmol), and a particle sizes of 85 to 120 nm are prepared from a chloroform solution of PC (dipalmitoyl-phosphatidylcholine Funakoshi, No. 850355C), PS (dipalmitoyl-phosphatidylserine Funakoshi, No. 840037C), and Compound d1-6.

[2] = tested on: vascular smooth muscle cells; assay: Introduced amount of the compounds to vascular smooth muscle cells (mixture culture with macrophage); assay type: cell-based; conditions: liposome PC 50 nmol + PS 50 nmol + compound, 37° C., 5% CO2, 24 hours
Protocol: The above liposome agent was added to a mixture culture system of vascular smooth muscle cells and macrophage, described in WO 01/082897, the disclosure of which is expressly incorporated by reference herein in its entirety. After cultivation under 37° C., 5% CO2 for 24 hours, the amount of the compounds introduced to the vascular smooth muscle cells were quantitated.

[3] = tested on: ICR male mice; assay type: in vivo
Protocol: Six-week old ICR male mice (Charles River Japan) were purchased, and after quarantine for 1 week, acclimatized for 1 week in a clean animal cage (air-conditioning: HEPA filter of class 1000, room temperature: 20 to 24° C., humidity: 35 to 60%). Then, in order to obtain the MTD value, a suspension of the test compound was administered from the caudal vein. The suspension was administered by using physiological saline (Hikari Pharmaceutical) or a glucose solution (Otsuka Pharmaceutical) as a medium. On the basis of the MTD value obtained, the suspension was administered everyday from the caudal vein for three consecutive days in an amount corresponding to ½ of the MTD value (n=3). Symptoms were observed up to 6 hours after each administration to observe neurotoxicity, and then autopsy was performed to examine major organs.
Compound (MTD (mg/kg)): neurotoxicity (“−” indicates negative for neurotoxicity, and “+” indicate positive for neurotoxicity)

[4] = suspension administered from the caudal vein, ICR male mice

## CC(C)CCC[C@@H](C)[C@H]1CC[C@H]2[C@@H]3CC=C4C[C@@H](OC(=O)CCCCCCCCCC(C)Oc5cc(C(F)(F)F)cc(C(F)(F)F)c5)CC[C@]4(C)[C@H]3CC[C@]12C (some centres unmarked) [Compound b1-8]
[1]
  Maximum amount forming liposome: 20 nmol
[2]
  Introduced amount: 8.9 nmol/mg protein
[3]; [4]
  MTD: 400 mg/kg

## CC(C)CCC[C@@H](C)[C@H]1CC[C@H]2[C@@H]3CC=C4C[C@@H](OC(=O)Oc5cc(C(F)(F)F)cc(C(F)(F)F)c5)CC[C@]4(C)[C@H]3CC[C@]12C [Compound b1-1]
[1]
  Maximum amount forming liposome: 40 nmol
[2]
  Introduced amount: 17.5 nmol/mg protein
[3]; [4]
  MTD: 400 mg/kg

## CC(C)CCC[C@@H](C)[C@H]1CC[C@H]2[C@@H]3CC=C4C[C@@H](OC(=O)CCC(=O)Oc5cc(C(F)(F)F)cc(C(F)(F)F)c5)CC[C@]4(C)[C@H]3CC[C@]12C [Compound b4-2]
[1]
  Maximum amount forming liposome: 20 nmol
[2]
  Introduced amount: 10.6 nmol/mg protein
[3]; [4]
  MTD: 400 mg/kg

## O=C(CCCCCCCC(F)(F)C(F)(F)C(F)(F)C(F)(F)C(F)(F)C(F)(F)F)OCC(COC(=O)CN1CCOCC1)OC(=O)CCCCCCCC(F)(F)C(F)(F)C(F)(F)C(F)(F)C(F)(F)C(F)(F)F (centres unmarked) [Compound e1-6]
[1]
  Maximum amount forming liposome: 40 nmol
[3]; mouse, in vivo
  MTD: 400 mg/kg
